Results published in ChEMBL document CHEMBL6096729, “Creating Glepaglutide, the First Long-Acting GLP-2 Analogue to Enable a Ready-to-Use Injection” (J Med Chem, 2025).

Columns and labels:
[1] = test system: Mus musculus; assay: Effect on small intestine of C57BL mouse assessed as mass of small intestine at 30 nmol/kg bid for 10 days relative to teduglutide; type: functional; settings: time 10 day
[2] = Stability of compound assessed as change in fluorescence intensity measured after 96 hrs by ThT fibrillation assay; type: physicochemical
[3] = molecular target: T1, Glucagon-like peptide 2 receptor (Homo sapiens, UniProt O95838); assay: Agonist activity at recombinant human GLP-2R overexpressed in HEK293 cells assessed as cAMP accumulation by HTRF assay; type: functional, cell-based
T1 sequence (O95838 whole entry): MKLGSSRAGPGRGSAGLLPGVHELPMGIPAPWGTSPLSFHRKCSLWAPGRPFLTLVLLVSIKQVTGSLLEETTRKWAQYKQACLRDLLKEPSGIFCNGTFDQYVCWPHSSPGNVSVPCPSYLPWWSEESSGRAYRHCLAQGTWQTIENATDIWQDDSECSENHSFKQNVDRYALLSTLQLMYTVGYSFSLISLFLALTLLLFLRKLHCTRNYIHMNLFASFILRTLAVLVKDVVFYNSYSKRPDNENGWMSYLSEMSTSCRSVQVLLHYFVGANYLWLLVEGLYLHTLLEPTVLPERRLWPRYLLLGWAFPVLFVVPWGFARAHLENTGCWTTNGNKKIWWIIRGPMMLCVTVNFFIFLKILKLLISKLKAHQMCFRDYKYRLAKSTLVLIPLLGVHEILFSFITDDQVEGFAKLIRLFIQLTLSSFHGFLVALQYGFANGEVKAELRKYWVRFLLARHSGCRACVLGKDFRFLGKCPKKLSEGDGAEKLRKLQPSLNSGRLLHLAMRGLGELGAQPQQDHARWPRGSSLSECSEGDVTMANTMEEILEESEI

[4] = molecular target: T2, Glucagon-like peptide 2 receptor (Homo sapiens) (UniProt O95838); assay: Agonist activity at recombinant human GLP-2R overexpressed in HEK293 cells assessed as cAMP accumulation by HTRF assay relative to control; type: functional, cell-based; settings: filed as agonist
T2 sequence (whole entry): T1 sequence (O95838 whole entry)

[5] = Half life in human; type: ADME
[6] = Chemical stability in 50 mM Histidine at pH 7.0 at 40 degreeC assessed as fold decrease in total degradation measured after 3 weeks by HPLC analysis relative to teduglutide; type: physicochemical; settings: buffer, pH 7, 504 h

Row | Compound | Activity [1] [%] | Activity [2] | EC50 [3] [nM] | Efficacy [4] [%] | Flu intensity [2] [RFU] | half-life [5] [h] | fold change (FC) [6]
1 | H-HGEGTFSSELSTILDALAARDFIAWLIATKITDKKKKKK-NH2 | 106 | Not_active | 0.37 | 102 | – | – | –
2 | H-HGEGTFSDELSTILDALAARDFIAWLIATKITDKKKKKK-NH2 | 105 | Not_active | 0.34 | 102 | – | – | –
3 | H-HGEGSFSSELSTILDALAARDFIAWLIATKITDKKKKKK-NH2 | 109 | Not_active | 0.18 | 100 | – | – | –
4 | CC[C@H](C)[C@H](NC(=O)[C@H](Cc1ccccc1)NC(=O)[C@H](CC(=O)O)NC(=O)[C@H](CCCNC(=N)N)NC(=O)[C@H](C)NC(=O)[C@H](C)NC(=O)[C@H](CC(C)C)NC(=O)[C@H](CC(N)=O)NC(=O)[C@H](CC(=O)O)NC(=O)[C@H](CC(C)C)NC(=O)[C@@H](NC(=O)[C@@H](NC(=O)[C@H](CC(N)=O)NC(=O)[C@H](CCSC)NC(=O)[C@H](CCC(=O)O)NC(=O)[C@H](CC(=O)O)NC(=O)[C@H](CO)NC(=O)[C@H](Cc1ccccc1)NC(=O)[C@H](CO)NC(=O)CNC(=O)[C@H](CC(=O)O)NC(=O)CNC(=O)[C@@H](N)Cc1c[nH]cn1)[C@@H](C)O)[C@@H](C)CC)C(=O)N[C@@H](CC(N)=O)C(=O)N[C@@H](Cc1c[nH]c2ccccc12)C(=O)N[C@@H](CC(C)C)C(=O)N[C@H](C(=O)N[C@@H](CCC(N)=O)C(=O)N[C@H](C(=O)N[C@@H](CCCCN)C(=O)N[C@H](C(=O)N[C@H](C(=O)N[C@@H](CC(=O)O)C(=O)O)[C@@H](C)O)[C@@H](C)CC)[C@@H](C)O)[C@@H](C)CC | – | – | – | 101 | – | – | –
5 | H-HGEGTFSSELSTILDALAARDFIAWLIATKITD-NH2 | 101 | – | 0.18 | 101 | 500 | – | –
6 | H-HGEGTFSDELSTILDALAARDFIAWLIATKITD-NH2 | 98 | – | 0.09 | 104 | 500 | – | –
7 | H-HGEGSFSDELSTILDALAARDFIAWLIATKITDKKKKKK-OH | – | Not_active | – | – | – | – | –
8 | H-HGEGSFSDELSTILDALAARDFIAWLIATKITD-NH2 | – | – | – | – | 500 | – | –
9 | H-HGEGTFSSELATILDALAARDFIAWLIATKITD-NH2 | 117 | Not_active | 0.1 | 100 | – | – | –
10 | H-HGEGTFSSELATILDALAARDFIAWLIATKITDKKKKKK-NH2 | 109 | Not_active | 0.18 | 102 | – | 88 | 2.6
11 | H-HGEGSFSSELSTILDALAARDFIAWLIATKITD-NH2 | 106 | – | 0.11 | 102 | 500 | – | –
